This note sets out measurements from patent US20080262021A1, “1H-Imidazoquinoline Derivatives as Prote In Kinase Inhibitors” (NOVARTIS AG, priority 2003, published 2008).

In one experiment the target is T1, S6K1 (Homo sapiens, UniProt P23443, T412E).
T1 construct: His (N); made in house; host or cells: Sf9 insect cells (baculovirus, pFastBacHT A), co-infected with GST-PDK1 virus
The experiment is described as follows: S6K1 kinase inhibition (S6K1ΔCT/T412E, TR-FRET). In kind it is biochemical. To be noted: read-out: IC50 Range Class, inhibition of S6K1. An excerpt:
The DNA fragment encoding S6K1ΔCT/T412E is subcloned to the baculovirus donor vector pFastBacHT A to generate a recombinant baculovirus that expresses S6K1ΔCT/T412E. Transfer vectors for S6K1ΔCT/T412E are transfected into the DH10Bac cell line (GIBCO). After selection of white colonies, they are used for viral DNA (bacmid) preparation. Sf9 cells (American Type Culture Collection) cells are then transfected with the viral DNA using Cellfectin reagent. Virus-containing media is collected from the transfected cell culture and is used for infection to increase its titer. For large-scale protein expression, Sf9 cells are co-infected with S6K1ΔCT/T412E and GST-PDK1 virus-containing media with MOI of 2.25 and 1, respectively. After 3 days, the cells expressing the recombinant enzyme are resuspended in the culture medium with a sterilized cell scraper and harvested by centrifugation. The cells are resuspended in 5 volumes of cell pellet of Extraction Buffer (50 mM MOPS pH 7.0, containing 300 mM NaCl, 0.05% Tween-20, 10 mM sodium pyrophosphate, 50 mM β-glycerophosphate, 0.2 mM cantharidic acid and 1× complete-EDTA protease inhibitor cocktail) and then disrupted with 15 strokes of a Dounce homogenizer followed by sonication on ice. The homogenate is centrifuged at 4° C. for 60 minutes at 48,000×g. The supernatant is clarified with a 5 μm filter and subjected to purification with TALON Superflow Resin (Clontech). First, 1 mL of TALON resin per 5 mL of the supernatant was equilibrated with the Extraction Buffer and resuspended in the supernatant followed by gentle agitation for 20 minutes at RT. After centrifugation at 700×g for 5 minutes, supernatant is removed. The resin is washed twice by adding 10 bed volumes of the Extraction Buffer, agitating for 10 minutes at RT, centrifugating at 700×g for 5 minutes, and discarding the supernatant. The resin is then resuspended with the same volume of the Extraction Buffer and transferred to an disposable chromatography column. The packed column is washed once with 10 bed volumes of the Extraction Buffer and additionally with the same volume of Wash Buffer (5 mM imidazole in the Extraction Buffer). Then, the His-tagged S6K1ΔCT/T412E is eluted with four bed volumes of Elution Buffer (150 mM imidazole in the Extraction Buffer).
Measure of enzyme activity: The kinase assay with purified S6K1ΔCT/T412E is performed with TR-FRET (Time-Resolved Fluorescene Resonance Energy Transfer) technology. First, ATP-dependent phosphorylation of the biotinylated substrate peptide corresponding to residues 229-242 of S6 ribosomal protein (Biot-AKRRRLSSLRASTS) is carried out for 1 hour at 37° C. in […] under humidified air. The kinase reaction mixture of the final volume of 9 μL contains 2.57 ng of purified S6K1ΔCT/T412E protein, 50 mM MOPS (pH 7.0), 0.1 mM EGTA, 0.01 mM Na3VO4, 0.05% Tween-20, 0.01% BSA, 1 mM DTT, 10 mM MgCl2, 3 μM ATP, 0.5 μM biotinylated substrate peptide, 1% of DMSO or the text compounds of the formula (I) at the required concentration in 1% DMSO. For measurement of background, 20 mM of EDTA is added to the reaction mixture. […] Phosphorylated peptide indicative of kinase activity is quantitated by exciting the sample at 330 nm and comparing donor emission at 615 nm and acceptor emission at 665 nm by 2101 EnVision HTS multilabel plate reader (Perkin Elmer). […]

The target in a further experiment is T2, ALK (Homo sapiens, UniProt Q9UM73).
T2 construct: using the recombinant kinase domain of the ALK in analogy to the VEGF-R kinase assay
T2 sequence (Q9UM73 1116-1392 limits assumed): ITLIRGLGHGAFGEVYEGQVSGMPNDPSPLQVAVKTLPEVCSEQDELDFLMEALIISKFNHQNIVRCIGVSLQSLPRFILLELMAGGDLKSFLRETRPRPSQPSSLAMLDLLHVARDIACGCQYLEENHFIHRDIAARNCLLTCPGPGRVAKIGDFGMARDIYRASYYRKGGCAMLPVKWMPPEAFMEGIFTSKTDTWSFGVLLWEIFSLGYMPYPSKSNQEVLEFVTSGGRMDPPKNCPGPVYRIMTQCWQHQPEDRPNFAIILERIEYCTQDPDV
Description: ALK tyrosine kinase inhibition (GST-ALK filter binding assay). Type of experiment: biochemical. To be noted: for IC50: read-out: IC50 Range Class, inhibition of ALK. As for the experimental part: See Wood et al., Cancer Res, Vol. 60, No. 8, pp. 2178-2189 (2000). In vitro enzyme assays using GST-ALK protein tyrosine kinase are performed in 96-well plates as a filter binding assay in 20 mM tris-HCl, pH=7.5, 3 mM MgCl2, 10 mM MnCl2, 1 mM DTT, 0.1 μCi/assay (=30 μL) [γ-^33P]-ATP, 2 μM ATP, 3 μg/mL poly (Glu, Tyr 4:1) Poly-EY (Sigma P-0275), 1% DMSO, 25 ng ALK enzyme. Assays are incubated for 10 minutes at ambient temperature. Reactions are terminated by adding 50 μL of 125 mM EDTA, and the reaction mixture is transferred onto a MAIP Multiscreen plate (Millipore, Bedford, Mass., USA), previously wet with methanol, and re-hydrated for 5 minutes with H2O. Following washing (0.5% H3PO4), plates are counted in a liquid scintillation counter. IC50 values are calculated by linear regression analysis of the percentage inhibition. Compared with the control without inhibitor, the compounds of formula (I) inhibit the enzyme activity by 50% (IC50), e.g., in a concentration of from 0.001-0.5 μM, especially from […].

A value given as a limit tells only on which side of the number the result lay.

T1 sequence (P23443 1-421 T412E): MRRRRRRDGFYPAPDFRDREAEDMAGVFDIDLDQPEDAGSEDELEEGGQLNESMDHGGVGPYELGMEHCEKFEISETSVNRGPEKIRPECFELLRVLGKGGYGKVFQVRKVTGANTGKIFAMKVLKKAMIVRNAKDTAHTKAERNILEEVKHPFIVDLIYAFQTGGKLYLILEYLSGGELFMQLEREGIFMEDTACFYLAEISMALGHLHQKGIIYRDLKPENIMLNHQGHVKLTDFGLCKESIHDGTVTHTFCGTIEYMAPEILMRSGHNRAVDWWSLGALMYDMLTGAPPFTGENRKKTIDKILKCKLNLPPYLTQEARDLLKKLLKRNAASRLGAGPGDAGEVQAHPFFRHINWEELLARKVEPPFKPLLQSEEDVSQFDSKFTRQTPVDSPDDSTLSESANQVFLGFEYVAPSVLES

As to `NCCc1ccc(-n2cnc3cnc4ccc(-c5ccc6[nH]ccc6c5)cc4c32)c(Cl)c1` [Example 11, 2-{3-Chloro-4-[8-(1H-indol-5-yl)-imidazo[4,5-c]quinolin-1-yl]-phenyl}-ethylamine], the IC50 on S6K1 and on ALK was no more than 0.5 µM each time.
Turning to `NCCc1ccc(-n2cnc3cnc4ccc(-c5ccc6[nH]ccc6c5)cc4c32)cc1F` [Example 18, 2-{2-Fluoro-4-[8-(1H-indol-5-yl)-imidazo[4,5-c]quinolin-1-yl]-phenyl}-ethylamine], the IC50 (as a rule, the point on the concentration scale where inhibition reaches its midpoint) on S6K1 is no more than 0.5 µM. The “IC50 Range Class, inhibition of ALK” value on ALK is recorded as “B/A”.
On to `NCCCc1ccc(-n2cnc3cnc4ccc(-c5ccc6[nH]ccc6c5)cc4c32)c(Cl)c1` [Example 48, 3-{3-Chloro-4-[8-(1H-indol-5-yl)-imidazo[4,5-c]quinolin-1-yl]-phenyl}-propylamine], for which the IC50 at ALK is no more than 0.5 µM.
